According to patent publication US9388175B2, “2-aniline-4-aryl substituted thiazole derivatives” (Janssen Pharmaceutica N.V., priority 2005, dated 2016):

Target: T1, hα7-wt nAChR stably expressed in the GH4C1 cell line (Homo sapiens, UniProt P36544)
T1 construct: expressed in transfected cells
Assay: Ca2+ flux imaging (FLIPR) of PAM activity with choline as agonist
Assay type: cell-based
Conditions: efficacy relative to 100 μM choline alone (defined as 1); peak fluorescence, fluo-4AM; compounds tested 0.1 μM to 30 μM, efficacy criterion at 10 μM
Excerpt: Stable expression in mammalian cells in general and rat GH4C1 cells in particular, of cDNA clones encoding the human α7 wild-type sequence (hα7-wt nAChR) and in which the coding region is placed downstream of a promoter results in the appearance of functional α7 nAChRs on the surface of the mammalian cells. This technique has provided a powerful means of assessing the function of α7 wild-type protein. Given the fact that the cation permeability of the α7 nicotinic receptor preferentially favours calcium, fluorescent imaging of Ca^2+ flux through the hα7-wt nAChR stably expressed in the GH4C1 cell line was used as a first means of assaying modulator activity of the compounds of the present invention.
a) Assay Buffer • Hanks buffered saline solution (HBSS, Invitrogen, Belgium), supplemented with 10 mM HEPES (Invitrogen, Belgium), CaCl2 to a final concentration of 5 mM, 0.1% Bovine serum albumin (Sigma-Aldrich NV, Belgium), 2.5 mM probenecid (Sigma-Aldrich NV, Belgium).
b) Calcium-Sensitive Dye—Fluo-4AM • Fluo-4AM (Molecular Probes, USA) was dissolved in DMSO containing 10% Pluronic acid (Molecular Probes, USA) to give a stock solution which was aliquoted and could be stored at −20° C. until later use. On the day of the experiment Fluo-4AM stock was defrosted and diluted in DMEM/F12 (Invitrogen, Belgium) containing 2.5 mM probenicid and 0.1% BSA to give a final concentration of 2 μM.
c) 96-well Plates • BD Biocoat poly-D-lysine 96-well black/clear bottom plates (BD Biosciences, Belgium)
d) Calcium Flux Measurement • A Fluorimetric Imaging Plate Reader (FLIPR, Molecular Devices Corporation, Sunnyvale, USA) was used to measure intracellular free-calcium flux signals
Monolayers of hα7-wt nAChR-expressing cells were grown in multi-well plates, in particular black-sided, transparent bottomed 96 well plates coated with poly-D-lysine for 24 hours prior to loading with a fluorescent calcium indicator, in a particular embodiment loading with fluo-3 or fluo-4AM for up to 90 minutes, in an even more particular embodiment loading with fluo-4AM for up to 90 minutes, and in a preferred embodiment loading with fluo-4AM for 60 minutes.
In a particular embodiment, the α7 nicotinic receptor agonist was choline, a more particular embodiment choline applied at a sub-maximal concentration of 100 μM.
A control response to choline was calculated on each plate from the difference in peak fluorescence in wells receiving either choline or assay buffer alone. Compounds of the present invention were tested at a concentration range from 0.1 μM to 30 μM.
The activity ranges are defined as follows; A denotes an activity range from 1.1 till 1.5, B denotes an activity range from 1.5 till 2.0, C denotes an activity range from 2.0 till 3.0, D denotes an activity range from 3.0 till 4.5 and E denotes an efficacy from at least 4.5.

T1 sequence (P36544 23-502): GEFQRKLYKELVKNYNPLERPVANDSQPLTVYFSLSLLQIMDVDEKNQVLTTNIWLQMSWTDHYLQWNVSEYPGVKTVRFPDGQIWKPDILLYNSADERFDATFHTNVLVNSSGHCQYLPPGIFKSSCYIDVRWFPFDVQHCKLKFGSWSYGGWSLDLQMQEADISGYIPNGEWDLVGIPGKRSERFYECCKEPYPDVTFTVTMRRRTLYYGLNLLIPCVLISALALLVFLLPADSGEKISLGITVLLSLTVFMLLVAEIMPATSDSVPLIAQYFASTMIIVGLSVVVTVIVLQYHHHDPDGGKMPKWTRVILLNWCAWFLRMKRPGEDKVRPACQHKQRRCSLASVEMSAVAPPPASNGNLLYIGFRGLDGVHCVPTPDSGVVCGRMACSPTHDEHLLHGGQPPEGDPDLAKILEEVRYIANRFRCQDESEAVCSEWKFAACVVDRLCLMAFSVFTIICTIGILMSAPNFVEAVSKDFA

Q: For Fc1ccc(Nc2nc(-c3cccnc3)c(Br)s2)cc1C(F)(F)F [Compound 84], which “Activity Range” value is on record?
A: C (C denotes an activity range from 2.0 till 3.0)

Q: COc1ccc(-c2csc(Nc3cccc4[nH]ncc34)n2)c(OC)c1 [Compound 35] was tested. Which “Activity Range” value did it give?
A: C (C denotes an activity range from 2.0 till 3.0)

Q: Which “Activity Range” value does the source give for CSc1cccc(Nc2nc(-c3cccnc3)c(C)s2)c1 [Compound 141] here?
A: C (C denotes an activity range from 2.0 till 3.0)

Q: How did the “Activity Range” value turn out when COC(=O)CCc1sc(Nc2ccc(OC)cc2)nc1-c1ccc(OC)cc1 [Compound 173, 5-Thiazolepropanoic acid, 4-(4-methoxyphenyl)-2-[(4-methoxyphenyl)amino]-, methyl ester] was run?
A: D (D denotes an activity range from 3.0 till 4.5)

Q: With Cc1sc(Nc2cccc(C(F)(F)F)c2)nc1-c1cccnc1 [Compound 101] as the compound, how does the “Activity Range” value read?
A: D (D denotes an activity range from 3.0 till 4.5)

Q: COCCc1nc(Nc2cccc(C(F)(F)F)c2)sc1C(=O)OC [Compound 159] was tested. Which “Activity Range” value did it give?
A: E (E denotes an efficacy from at least 4.5)

Q: With Clc1ccc(Nc2nc(-c3ccccc3Cl)cs2)c(Cl)c1 [Compound 37] as the compound, how does the “Activity Range” value read?
A: C (C denotes an activity range from 2.0 till 3.0)

Q: For Cc1ccc(Nc2nc(-c3cccnc3)c(F)s2)cc1 [Compound 120], which “Activity Range” value is on record?
A: C (C denotes an activity range from 2.0 till 3.0)

Q: Cc1cc(C(=O)NCc2sc(Nc3cccc(C(F)(F)F)c3)nc2-c2cccnc2)no1 [Compound 108, 5-methyl-N-[[4-(3-pyridinyl)-2-[[3-(trifluoromethyl)phenyl]amino]-5-thiazolyl]methyl]-3-isoxazolecarboxamide] was tested. Which “Activity Range” value did it give?
A: E (E denotes an efficacy from at least 4.5)

Q: Which “Activity Range” value does the source give for CSc1cccc(Nc2nc(-c3cnc4ccccn34)cs2)c1 [Compound 52] here?
A: C (C denotes an activity range from 2.0 till 3.0)

Q: O=C(Nc1cccnc1)c1sc(Nc2ccc(F)cc2)nc1-c1ccccc1 [Compound 169, 5-Thiazolecarboxamide, 2-[(4-fluorophenyl)amino]-4-phenyl-N-3-pyridinyl-] was tested. Which “Activity Range” value did it give?
A: D (D denotes an activity range from 3.0 till 4.5)

Q: For CNC(=O)Cc1sc(Nc2cc(Cl)c(OC)cc2OC)nc1-c1ccc2c(c1)OCCO2 [Compound 97, 2-[(5-chloro-2,4-dimethoxyphenyl)amino]-4-(2,3-dihydro-1,4-benzodioxin-6-yl)-N-methyl-5-thiazoleacetamide], which “Activity Range” value is on record?
A: E (E denotes an efficacy from at least 4.5)

Q: How did the “Activity Range” value turn out when Cc1cccc(Nc2nc(-c3cnc4ccccn34)c(F)s2)c1 [Compound 82] was run?
A: B (B denotes an activity range from 1.5 till 2.0)

Q: With FC(F)(F)c1cccc(Nc2nc(-c3cnc4ccccn34)cs2)c1 [Compound 71] as the compound, how does the “Activity Range” value read?
A: B (B denotes an activity range from 1.5 till 2.0)

Q: Which “Activity Range” value does the source give for Fc1cncc(-c2csc(Nc3ccc(F)c(C(F)(F)F)c3)n2)c1 [Compound 5] here?
A: D (D denotes an activity range from 3.0 till 4.5)

Q: For Cc1ccc(Nc2nc(-c3cccnc3)c(C)s2)cc1 [Compound 138], which “Activity Range” value is on record?
A: E (E denotes an efficacy from at least 4.5)

Q: For COC(=O)c1sc(Nc2ccc(OC)cc2)nc1C(C)C [Compound 151], which “Activity Range” value is on record?
A: E (E denotes an efficacy from at least 4.5)

Q: With CC(C)c1nc(Nc2cccc(C(F)(F)F)c2)sc1CO [Compound 116] as the compound, how does the “Activity Range” value read?
A: E (E denotes an efficacy from at least 4.5)

Q: How did the “Activity Range” value turn out when COc1cc(OC)c(Nc2nc(-c3ccncc3)c(CC(=O)N3CCCC3)s2)cc1Cl [Compound 135] was run?
A: E (E denotes an efficacy from at least 4.5)

Q: CCOC(=O)c1sc(Nc2cccc(C(F)(F)F)c2)nc1C(F)(F)F [Compound 147] was tested. Which “Activity Range” value did it give?
A: E (E denotes an efficacy from at least 4.5)

Q: With COCCc1nc(Nc2cc(Cl)ccc2Cl)sc1C(=O)OC [Compound 157] as the compound, how does the “Activity Range” value read?
A: E (E denotes an efficacy from at least 4.5)

Q: With N#CCc1sc(Nc2cccc(C(F)(F)F)c2)nc1-c1ccccc1 [int. 3, [4-Phenyl-2-(3-trifluoromethyl-phenylamino)-thiazol-5-yl]-acetonitrile] as the compound, how does the “Activity Range” value read?
A: D (D denotes an activity range from 3.0 till 4.5)

Q: COc1cc(OC)c(Nc2nc(-c3ccncc3)c(CO)s2)cc1Cl [int. 25] was tested. Which “Activity Range” value did it give?
A: C (C denotes an activity range from 2.0 till 3.0)

Q: COc1ccc(-c2csc(Nc3cc(F)ccc3C)n2)c(OC)c1 [Compound 40] was tested. Which “Activity Range” value did it give?
A: C (C denotes an activity range from 2.0 till 3.0)

Q: For CCOC(=O)c1sc(Nc2ccc(OC)cc2)nc1C1CC1 [Compound 146], which “Activity Range” value is on record?
A: E (E denotes an efficacy from at least 4.5)

Q: How did the “Activity Range” value turn out when Brc1ccc(Nc2nc(-c3cccnc3)cs2)cn1 [Compound 64] was run?
A: D (D denotes an activity range from 3.0 till 4.5)

Q: With COc1ccc(Nc2nc(-c3ccccc3)c(Br)s2)cc1 [Compound 93] as the compound, how does the “Activity Range” value read?
A: E (E denotes an efficacy from at least 4.5)

Q: With Cc1ccc(Nc2nc(-c3cccnc3)cs2)cn1 [Compound 66] as the compound, how does the “Activity Range” value read?
A: D (D denotes an activity range from 3.0 till 4.5)

Q: How did the “Activity Range” value turn out when CCOC(=O)c1sc(Nc2ccc(OC)cc2)nc1C1CCCN(C(=O)OCc2ccccc2)C1 (centres unmarked) [Compound 104] was run?
A: E (E denotes an efficacy from at least 4.5)

Q: For COc1ccccc1Nc1nc(-c2ccccc2Cl)cs1 [Compound 42], which “Activity Range” value is on record?
A: B (B denotes an activity range from 1.5 till 2.0)

Q: FC(F)(F)c1cc(Nc2nc(-c3cnc4ccccn34)cs2)ccc1Cl [Compound 54] was tested. Which “Activity Range” value did it give?
A: A (A denotes an activity range from 1.1 till 1.5)

Q: COCCc1nc(Nc2ccc(OC)cc2)sc1C(=O)OC [Compound 158] was tested. Which “Activity Range” value did it give?
A: E (E denotes an efficacy from at least 4.5)

Q: With Cc1cccc(Nc2nc(-c3cccnc3)cs2)c1 [Compound 76] as the compound, how does the “Activity Range” value read?
A: C (C denotes an activity range from 2.0 till 3.0)

Q: COc1ccc(Nc2nc(-c3cnc4ccccn34)cs2)cc1OC [Compound 55] was tested. Which “Activity Range” value did it give?
A: B (B denotes an activity range from 1.5 till 2.0)

Q: With CCOC(=O)c1sc(Nc2cccc(C(F)(F)F)c2)nc1C1CC1 [Compound 145] as the compound, how does the “Activity Range” value read?
A: E (E denotes an efficacy from at least 4.5)

Q: How did the “Activity Range” value turn out when OCc1sc(Nc2cccc(C(F)(F)F)c2)nc1C(F)(F)F [Compound 119] was run?
A: E (E denotes an efficacy from at least 4.5)

Q: For Cc1sc(Nc2ccc(C(F)(F)F)cc2)nc1-c1cccnc1 [Compound 87], which “Activity Range” value is on record?
A: C (C denotes an activity range from 2.0 till 3.0)

Q: How did the “Activity Range” value turn out when Cc1ccc(-c2csc(Nc3cccc(C(F)(F)F)c3)n2)cn1 [Compound 68] was run?
A: E (E denotes an efficacy from at least 4.5)

Q: With COc1ccc(Nc2nc(-c3ccccc3)c(CO)s2)cc1 [Compound 127] as the compound, how does the “Activity Range” value read?
A: E (E denotes an efficacy from at least 4.5)

Q: For Brc1ccc(Nc2nc(-c3cnc4ccccn34)cs2)cn1 [Compound 45], which “Activity Range” value is on record?
A: D (D denotes an activity range from 3.0 till 4.5)

Q: Which “Activity Range” value does the source give for Clc1ccc(Nc2nc(-c3cnc4ccccn34)cs2)cc1 [Compound 53] here?
A: D (D denotes an activity range from 3.0 till 4.5)

Q: For CCOC(=O)c1sc(Nc2cccc(C(F)(F)F)c2)nc1C1CCCN(C(=O)OCc2ccccc2)C1 (centres unmarked) [Compound 160], which “Activity Range” value is on record?
A: E (E denotes an efficacy from at least 4.5)

Q: Which “Activity Range” value does the source give for COC(=O)c1sc(Nc2cc(Cl)ccc2Cl)nc1C(C)C [Compound 149] here?
A: E (E denotes an efficacy from at least 4.5)

Q: Which “Activity Range” value does the source give for CC(=O)NCc1sc(Nc2cccc(C(F)(F)F)c2)nc1-c1cccnc1 [Compound 4, N-[4-Pyridin-3-yl-2-(3-trifluoromethyl-phenylamino)-thiazol-5-ylmethyl]-acetamide] here?
A: D (D denotes an activity range from 3.0 till 4.5)
